Assays:
TRKA kinase = TRKA kinase (Homo sapiens (Human), UniProt P04629); assay: Assay of small molecular compounds for inhibiting the activity of TRKA kinase (LANCE TR-FRET); format: biochemical
Summary of the method: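 TRKA (supplied as 2 nM 2× solution) was pre-reacted with compounds for 5 min at room temperature before a 4× ULight-TK peptide/ATP mix (400 nM/40 μM) started the 60-min dark reaction at 1% DMSO. After stop and 60-min detection, TR-FRET was read.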

c-MET kinase = c-MET kinase (Homo sapiens (Human), UniProt P08581); assay: Assay of small molecular compounds for inhibiting the activity of c-MET kinase (LANCE TR-FRET); format: biochemical; conditions: read-out: CMET IC50
Summary of the method: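 Eleven final concentrations from 2500 nM down to 0.042 nM, in 4% DMSO, were tested against human c-MET (2× stock 2 nM), with compound and enzyme premixed for 5 min. The phosphorylation reaction used 4× stock of 400 nM ULight-JAK-1 peptide and 40 μM ATP for 60 min at room temperature, then stop and detection steps. TR-FRET percent inhibition against positive and negative controls gave the IC50.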

MHCC97H cells = assay: Assay for inhibiting the proliferation of MHCC97H cells (CCK-8); format: cell-based; conditions: Homo sapiens
Method: (§1) In particular, the method of the assay of small molecular compounds for inhibiting cell proliferation is as follows: • 1. Cells cultured to a logarithmic growth phase (adherent cells need to be digested with trypsin and neutralized) were taken, pipetted evenly, transferred to a 15 mL centrifuge tube, and centrifuged at 1000 rpm at room temperature for 4 minutes; • 2. The supernatant was discarded; 5 mL of complete medium was added and pipetted evenly; 10 μL of cell suspension was taken out, mixed well with 10 μL of 0.4% trypan blue, and counted under a cell counter; the proportion of living cells was ensured to be above 90%; • 3. 80 μL of cell suspension per well was seeded into a 96-well plate according to the conditions shown in the attached table, and cultured overnight; in the outer 36 wells of the 96-well plate, no cells were added but only sterile water was added; only the inner 60 wells were used for cell assay and control; • 4. 5×compound dilution: the compounds were serially diluted 3-fold to obtain a total of 9 concentrations; 80-fold overall dilution was completed with complete medium, the resulting concentration was 5 times the final drug concentration, and DMSO concentration was 1.25%; • 5. 20 μL of the corresponding compounds with different concentration gradients were added to each well of assay wells of the 96-well plate; 20 μL of complete medium was added to positive and negative control wells and shaken well; and the final concentration of DMSO in each well was 0.25%; • 6. After 72 hours of incubation, 10 μL of CCK-8 reagent was added to each well and further incubated at 37° C. for 1-2 hours; and the OD value was read at 450 nm; • 7. Cell survival rate (%)=[(As−Ab)/(Ac−Ab)]*100% • As: Assay well (medium containing cells, CCK-8, compound), • Ac: Control well (medium containing cells, CCK-8), • Ab: Blank well (CCK-8, medium without cell and compound), • 8. The values were imported into Graphpad Prism 5 software for IC50 calculation.

Ba/F3 LMNA-NTRK1 cells = assay: Assay for inhibiting the proliferation of Ba/F3 LMNA-NTRK1 cells (CCK-8); format: cell-based; conditions: Mus musculus, BaF3
Method: as §1, with “5×compound dilution: the compounds were serially diluted 3-fold to obtain a total of 9 concentrations; 80-fold overall dilution was completed with complete medium, the resulting concentration was 5 times the final drug concentration, and DMSO concentration was 1.25%; • 5.” left out

[1] = system: Ba/F3 LMNA-NTRK1-G595R cells; assay: Assay for inhibiting the proliferation of Ba/F3 LMNA-NTRK1-G595R cells (CCK-8); format: cell-based; conditions: Mus musculus, BaF3
Method: as §1

Ba/F3-AXL cells = assay: Assay for inhibiting the proliferation of Ba/F3-AXL cells (CCK-8); format: cell-based; conditions: 72 hours of incubation, medium with 100 ng/mL hGas6, CCK-8
Method: The values were then imported into Graphpad Prism 5 software for curve fitting, and IC50 was calculated.

EBC1 cells = assay: Assay for inhibiting the proliferation of EBC1 cells (CCK-8); format: cell-based; conditions: Homo sapiens, EBC-1
Method: as §1

MER kinase = MER kinase (Homo sapiens (Human), UniProt Q12866); assay: Assay of small molecular compounds for inhibiting the activity of MER kinase (LANCE TR-FRET); format: biochemical
Summary of the method: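 LANCE TR-FRET readout of ULight-poly GT phosphorylation by MER kinase; compound final range 0.042-2500 nM, 3-fold steps, 5 min enzyme preincubation. Reaction 60 min at room temperature in the dark with substrate/ATP (4× at 200 nM/20 μM), 1% DMSO, then stopped and developed 60 min; IC50 by curve fit.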

VEGFR-2 kinase = VEGFR-2 kinase (Homo sapiens (Human), UniProt P35968); assay: Assay of small molecular compounds for inhibiting the activity of VEGFR-2 kinase (LANCE TR-FRET); format: biochemical; conditions: read-out: VEGFR2 IC50
Method: The assay is based on the LANCE TR-FRET technology of Perkin Elmer Inc., and the assay method is as follows: • 1. Dilution of compounds: a total of 11 concentrations were obtained using a 3-fold gradient dilution from the highest concentration of 2500 nM (the maximum final concentration of the drug used in this assay was 2500 nM, and the minimum final concentration was 0.042 nM). • 2. 2.5 μL of the gradient-diluted compounds were taken with a transfer pipette to a 384-well plate. • 3. Addition of enzyme: 5 μL of 2×VEGFR2 kinase solution (with a concentration of 0.5 nM) was taken with a transfer pipette to the corresponding reaction well of the 384-well plate, mixed well and pre-reacted at room temperature for 30 minutes. • 4. 2.5 μL 4× Ultra ULight™-JAK-1 (Tyr1023) Peptide (with a concentration of 200 nM)/ATP (with a concentration of 40 μM) mixture was taken with a transfer pipette to the corresponding reaction well of the 384-well plate. • 5. Negative control: 2.5 μL/well 4× substrate/ATP mixture and 7.5 μL 1× Kinase Assay Buffer were added to the wells of the 384-well plate. • 6. Positive control: 2.5 μL/well 4× substrate/ATP mixture, 2.5 μL/well 1× Kinase Assay Buffer containing 16% DMSO, and 5 μL/well 2×VEGFR-2 kinase solution were added to the 384-well plate. The final concentration of DMSO in the reaction system was 4%. • 7. The mixture was mixed well and then centrifuged and reacted at room temperature in dark for 60 min. • 8. Termination of the enzymatic reaction: 5 μL of 4× stop solution was taken with a transfer pipette to the wells of the 384-well plate, mixed and then centrifuged, and reacted at room temperature for 5 min. • 9. Development of the reaction: 5 μL of 4× detection solution was taken with a transfer pipette to the wells of the 384-well plate for color development, and the mixture was mixed and then centrifuged and reacted at room temperature for 60 min. • 10. The 384-well plate was placed into the Envision plate reader and the signal was detected using the appropriate program. • 11. Analysis and processing of the raw data: The drug concentrations and the corresponding inhibition rates were input into GraphPad Prism5 for calculation, and the inhibition rate of the compounds were calculated as follows: inhibition rate (%)=(reading of positive well−reading of experimental well)/(reading of positive control well−reading of negative control well)×100%. Processing with GraphPad Prism5 software yielded the corresponding IC50 values (the concentration of the compound at which 50% of the highest inhibition of the enzyme is achieved).

TRKA kinase, sequence (P04629 33-796): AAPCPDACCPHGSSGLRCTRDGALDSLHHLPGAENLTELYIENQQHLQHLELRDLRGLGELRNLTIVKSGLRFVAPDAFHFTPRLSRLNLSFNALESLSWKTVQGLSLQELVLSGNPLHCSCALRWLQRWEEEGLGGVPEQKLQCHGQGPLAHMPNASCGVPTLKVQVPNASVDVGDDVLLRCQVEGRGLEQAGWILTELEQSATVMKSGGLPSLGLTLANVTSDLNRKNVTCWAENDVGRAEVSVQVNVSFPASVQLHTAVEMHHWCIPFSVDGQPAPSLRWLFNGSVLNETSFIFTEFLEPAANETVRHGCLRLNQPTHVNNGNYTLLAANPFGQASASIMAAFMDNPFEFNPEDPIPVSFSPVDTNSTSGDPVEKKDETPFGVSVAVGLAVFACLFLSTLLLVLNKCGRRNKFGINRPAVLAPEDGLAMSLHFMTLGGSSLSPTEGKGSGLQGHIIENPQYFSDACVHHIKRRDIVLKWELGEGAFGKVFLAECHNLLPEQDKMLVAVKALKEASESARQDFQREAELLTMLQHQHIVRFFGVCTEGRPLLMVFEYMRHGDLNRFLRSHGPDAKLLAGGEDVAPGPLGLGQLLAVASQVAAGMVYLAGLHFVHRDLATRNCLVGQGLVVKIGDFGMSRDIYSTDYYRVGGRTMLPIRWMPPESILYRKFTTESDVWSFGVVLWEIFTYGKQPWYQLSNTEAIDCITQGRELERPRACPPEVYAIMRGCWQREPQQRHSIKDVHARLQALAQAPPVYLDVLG
c-MET kinase, sequence (P08581 25-1390): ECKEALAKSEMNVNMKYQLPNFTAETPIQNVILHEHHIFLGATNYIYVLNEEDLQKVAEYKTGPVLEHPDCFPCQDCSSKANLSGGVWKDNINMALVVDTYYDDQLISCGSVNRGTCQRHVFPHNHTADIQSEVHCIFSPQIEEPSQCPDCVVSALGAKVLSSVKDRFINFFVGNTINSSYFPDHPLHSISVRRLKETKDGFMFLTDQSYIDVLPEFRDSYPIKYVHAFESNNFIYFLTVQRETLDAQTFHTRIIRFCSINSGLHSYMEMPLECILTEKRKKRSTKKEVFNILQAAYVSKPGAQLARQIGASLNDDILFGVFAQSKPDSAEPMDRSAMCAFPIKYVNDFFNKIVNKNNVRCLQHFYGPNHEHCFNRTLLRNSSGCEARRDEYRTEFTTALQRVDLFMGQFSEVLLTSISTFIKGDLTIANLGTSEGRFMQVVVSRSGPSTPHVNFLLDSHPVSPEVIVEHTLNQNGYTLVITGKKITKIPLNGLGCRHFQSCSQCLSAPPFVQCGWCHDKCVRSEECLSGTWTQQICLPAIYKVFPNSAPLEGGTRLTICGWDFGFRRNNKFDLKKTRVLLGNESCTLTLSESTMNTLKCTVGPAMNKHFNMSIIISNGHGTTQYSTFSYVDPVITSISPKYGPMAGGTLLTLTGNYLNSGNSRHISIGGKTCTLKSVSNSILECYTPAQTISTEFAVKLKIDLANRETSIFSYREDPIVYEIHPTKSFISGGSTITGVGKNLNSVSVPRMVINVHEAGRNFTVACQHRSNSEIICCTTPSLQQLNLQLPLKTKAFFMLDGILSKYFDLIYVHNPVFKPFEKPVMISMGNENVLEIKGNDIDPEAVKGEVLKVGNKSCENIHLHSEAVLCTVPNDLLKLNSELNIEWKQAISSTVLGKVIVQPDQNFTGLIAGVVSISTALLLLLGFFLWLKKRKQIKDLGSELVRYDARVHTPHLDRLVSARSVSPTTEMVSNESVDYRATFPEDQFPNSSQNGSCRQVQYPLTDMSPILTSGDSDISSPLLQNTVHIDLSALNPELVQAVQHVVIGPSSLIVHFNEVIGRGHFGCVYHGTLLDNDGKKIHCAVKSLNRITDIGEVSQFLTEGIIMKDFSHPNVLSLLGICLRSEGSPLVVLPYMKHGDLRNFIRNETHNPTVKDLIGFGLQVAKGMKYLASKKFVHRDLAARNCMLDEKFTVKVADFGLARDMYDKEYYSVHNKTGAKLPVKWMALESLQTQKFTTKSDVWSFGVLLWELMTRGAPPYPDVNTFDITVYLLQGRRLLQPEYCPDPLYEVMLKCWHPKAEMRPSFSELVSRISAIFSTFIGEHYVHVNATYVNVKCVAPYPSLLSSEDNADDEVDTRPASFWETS
VEGFR-2 kinase, sequence (P35968 20-1356): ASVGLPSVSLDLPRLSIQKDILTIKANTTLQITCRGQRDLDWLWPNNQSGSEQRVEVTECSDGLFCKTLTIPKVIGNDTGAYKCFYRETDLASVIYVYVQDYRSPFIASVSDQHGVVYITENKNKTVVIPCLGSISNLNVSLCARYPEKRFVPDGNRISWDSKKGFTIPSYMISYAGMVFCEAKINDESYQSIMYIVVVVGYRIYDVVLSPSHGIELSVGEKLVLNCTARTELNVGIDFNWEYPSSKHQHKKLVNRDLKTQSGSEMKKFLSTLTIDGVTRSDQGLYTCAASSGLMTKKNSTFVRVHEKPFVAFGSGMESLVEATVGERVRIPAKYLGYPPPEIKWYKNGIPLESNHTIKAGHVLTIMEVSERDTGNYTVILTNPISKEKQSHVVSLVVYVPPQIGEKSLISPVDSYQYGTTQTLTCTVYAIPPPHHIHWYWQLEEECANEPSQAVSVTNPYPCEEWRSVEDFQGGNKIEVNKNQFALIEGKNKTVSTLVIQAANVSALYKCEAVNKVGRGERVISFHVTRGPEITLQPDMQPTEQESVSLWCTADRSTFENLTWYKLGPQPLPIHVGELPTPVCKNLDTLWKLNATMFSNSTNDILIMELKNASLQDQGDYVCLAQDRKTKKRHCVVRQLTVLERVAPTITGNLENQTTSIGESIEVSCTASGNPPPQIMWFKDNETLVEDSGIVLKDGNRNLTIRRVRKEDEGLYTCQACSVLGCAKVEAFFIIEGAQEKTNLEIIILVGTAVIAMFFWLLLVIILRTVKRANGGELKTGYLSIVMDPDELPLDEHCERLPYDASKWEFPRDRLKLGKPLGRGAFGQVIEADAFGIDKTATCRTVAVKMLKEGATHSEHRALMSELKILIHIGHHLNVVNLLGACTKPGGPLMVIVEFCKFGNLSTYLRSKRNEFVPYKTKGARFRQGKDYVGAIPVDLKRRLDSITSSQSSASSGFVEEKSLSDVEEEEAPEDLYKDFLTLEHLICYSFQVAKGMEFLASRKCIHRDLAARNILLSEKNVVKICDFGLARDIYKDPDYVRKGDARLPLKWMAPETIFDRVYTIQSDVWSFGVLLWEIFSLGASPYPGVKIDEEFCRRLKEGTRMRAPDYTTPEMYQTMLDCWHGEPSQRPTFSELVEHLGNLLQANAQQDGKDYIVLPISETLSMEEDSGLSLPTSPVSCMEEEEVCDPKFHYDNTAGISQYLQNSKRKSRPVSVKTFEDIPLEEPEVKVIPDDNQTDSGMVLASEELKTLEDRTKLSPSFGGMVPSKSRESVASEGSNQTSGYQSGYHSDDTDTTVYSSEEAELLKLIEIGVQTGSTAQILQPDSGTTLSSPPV
MER kinase, sequence (Q12866 21-999): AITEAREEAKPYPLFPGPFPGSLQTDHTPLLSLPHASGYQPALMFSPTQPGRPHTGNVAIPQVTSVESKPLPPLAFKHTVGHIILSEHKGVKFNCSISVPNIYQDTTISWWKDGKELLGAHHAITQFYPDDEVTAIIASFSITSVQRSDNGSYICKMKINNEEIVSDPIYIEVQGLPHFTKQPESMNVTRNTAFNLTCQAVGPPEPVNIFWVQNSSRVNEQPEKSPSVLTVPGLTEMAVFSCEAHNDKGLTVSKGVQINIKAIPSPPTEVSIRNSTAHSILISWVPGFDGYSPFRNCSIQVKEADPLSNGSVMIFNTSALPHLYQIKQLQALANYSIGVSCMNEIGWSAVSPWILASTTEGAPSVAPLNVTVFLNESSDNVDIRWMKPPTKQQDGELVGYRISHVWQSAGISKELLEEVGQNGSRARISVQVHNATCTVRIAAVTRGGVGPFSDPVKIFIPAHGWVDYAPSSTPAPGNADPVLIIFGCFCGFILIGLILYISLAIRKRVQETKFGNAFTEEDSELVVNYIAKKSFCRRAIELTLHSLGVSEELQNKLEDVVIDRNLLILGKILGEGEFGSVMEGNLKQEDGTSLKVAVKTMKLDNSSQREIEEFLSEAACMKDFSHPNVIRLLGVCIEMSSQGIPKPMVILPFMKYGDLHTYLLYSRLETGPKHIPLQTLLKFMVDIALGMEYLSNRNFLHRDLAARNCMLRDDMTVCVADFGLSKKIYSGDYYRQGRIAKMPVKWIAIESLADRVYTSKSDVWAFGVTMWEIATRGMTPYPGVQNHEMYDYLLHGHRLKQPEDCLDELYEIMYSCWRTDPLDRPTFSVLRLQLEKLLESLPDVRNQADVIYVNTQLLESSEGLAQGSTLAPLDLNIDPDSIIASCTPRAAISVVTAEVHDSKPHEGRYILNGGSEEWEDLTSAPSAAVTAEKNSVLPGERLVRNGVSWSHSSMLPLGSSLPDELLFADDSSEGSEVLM

Structure (SMILES)	IC50 (TRKA kinase) [nM]	IC50 (c-MET kinase) [nM]	IC50 (MHCC97H cells) [nM]	IC50 (Ba/F3 LMNA-NTRK1 cells) [nM]	IC50 [1] [nM]	IC50 (Ba/F3-AXL cells) [nM]	IC50 (EBC1 cells) [nM]	IC50 (MER kinase) [nM]	IC50 (VEGFR-2 kinase) [nM]
COCCOc1cc2nccc(Oc3cc(C(C)C)c(NC(=O)c4cn(C)c(=O)n(-c5ccc(F)cc5)c4=O)cc3F)c2c2c1OCCO2 [Example 183, N-(5-fluoro-4-((5-(2-methoxyethoxy)-2,3-dihydro-[1,4]dioxino[2,3-f]quinolin-10-yl)oxy)-2-isopropylphenyl)-3-(4-fluorophenyl)-1-methyl-2,4-dioxo-1,2,3,4-tetrahydropyrimidine-5-carb oxamide]	50 to 500	50 to 500	> 1000						
Cc1cc(Oc2ccnc3ccc4c(c23)OCCO4)c(F)cc1NC(=O)c1cn(C)c(=O)n(-c2ccc(F)cc2)c1=O [Example 175, N-(4-((2,3-dihydro-[1,4]dioxino[2,3-f]quinolin-10-yl)oxy)-5-fluoro-2-methylphenyl)-3-(4-fluorophenyl)-1-methyl-2,4-dioxo-1,2,3,4-tetrahydropyrimidine-5-carboxamide]	< 50			< 50	50 to 200				
CCc1cc(Oc2ccnc3cc(OCCOC)c4c(c23)OCCO4)c(F)cc1NC(=O)c1cn(CC)c(=O)n(-c2ccc(F)cc2)c1=O [Example 182, N-(5-fluoro-4-((5-(2-methoxyethoxy)-2,3-dihydro-[1,4]dioxino[2,3-f]quinolin-10-yl)oxy)-2-ethylphenyl)-3-(4-fluorophenyl)-1-ethyl-2,4-dioxo-1,2,3,4-tetrahydropyrimidine-5-carboxamide]	50 to 500	≤ 50	≤ 50						
O=C(Nc1ccc(Oc2ccnc3cc(OCCCN4CCOCC4)c4c(c23)OCCO4)c(F)c1)c1cccn(-c2ccc(F)cc2)c1=O [Example 20, N-(3-fluoro-4-((5-(3-morpholinopropoxy)-2,3-dihydro-[1,4]dioxino[2,3-f]quinolin-10-yl)oxy)phenyl)-1-(4-fluorophenyl)-2-oxo-1,2-dihydropyridine-3-carboxamide]			≤ 50	< 50		< 50	≤ 50		
CCOc1ccn(-c2ccc(F)cc2)c(=O)c1C(=O)Nc1ccc(Oc2ccnc3cc(OCCCCCCN(C)C)c4c(c23)OCCO4)c(F)c1 [Example 60, N-(4-((5-((6-dimethylamino)hexyloxy)-2,3-dihydro-[1,4]dioxino[2,3-f]quinolin-10-yl)oxy)-3-fluorophenyl)-4-ethoxy-1-(4-fluorophenyl)-2-oxo-1,2-dihydropyridine-3-carboxamide]			50 to 200	< 50		< 50	≤ 50		
CCc1cc(Oc2ccnc3cc(OCCOC)c4c(c23)OCCO4)c(F)cc1NC(=O)c1cn(C)c(=O)n(-c2ccc(F)cc2)c1=O [Example 181, N-(5-fluoro-4-((5-(2-methoxyethoxy)-2,3-dihydro-[1,4]dioxino[2,3-f]quinolin-10-yl)oxy)-2-ethylphenyl)-3-(4-fluorophenyl)-1-methyl-2,4-dioxo-1,2,3,4-tetrahydropyrimidine-5-carboxamide]	< 50	≤ 50	50 to 200						
COc1cc2nccc(Oc3ccc(NC(=O)c4c(OC)ccn(-c5ccc(F)cc5)c4=O)c(Cl)c3)c2c2c1OCCO2 [Example 124, N-(2-chloro-4-((5-methoxy-2,3-dihydro-[1,4]dioxino[2,3-f]quinolin-10-yl)oxy)phenyl)-1-(4-fluorophenyl)-4-methoxy-2-oxo-1,2-dihydropyridine-3-carboxamide]	< 50			< 50		< 50		≤ 50	500 to 5000
CCn1cc(C(=O)Nc2cc(F)c(Oc3ccnc4cc(OCCOC)c5c(c34)OCCO5)cc2C(C)C)c(=O)n(-c2ccc(F)cc2)c1=O [Example 184, N-(5-fluoro-4-((5-(2-methoxyethoxy)-2,3-dihydro-[1,4]dioxino[2,3-f]quinolin-10-yl)oxy)-2-isopropylphenyl)-3-(4-fluorophenyl)-1-ethyl-2,4-dioxo-1,2,3,4-tetrahydropyrimidine-5-carboxamide]	50 to 500		> 1000						
CCOc1ccn(-c2ccc(F)cc2)c(=O)c1C(=O)Nc1ccc(Oc2ccnc3cc(OCCCN(C)C)c4c(c23)OCCO4)c(F)c1 [Example 61, N-(4-((5-((3-dimethylamino)propoxy)-2,3-dihydro-[1,4]dioxino[2,3-f]quinolin-10-yl)oxy)-3-fluorophenyl)-4-ethoxy-1-(4-fluorophenyl)-2-oxo-1,2-dihydropyridine-3-carboxamide]			≤ 50	< 50		< 50	≤ 50		

From patent publication US12202835B2, “Substituted aromatic ring-linked dioxinoquinazolines and dioxinoquinolines as kinase inhibitors” (BEIJING SCITECH-MQ PHARMACEUTICALS LIMITED, priority 2018, dated 2025)
